Assay results from US6355616B1, “Derivative compounds derived from or based on bactericidal/permeability-increasing protein” (priority 1999, dated 2002).

B1: BPI: protein isolated from the granules of mammalian polymorphonuclear leukocytes (protein, UniProt P17213 32-487, looked up)
Bactericidal …: VNPGVVVRISQKGLDYASQQGTAALQKELKRIKIPDYSDSFKIKHLGKGHYSFYSMDIREFQLPSSQISMVPNVGLKFSISNANIKISGKWKAQKRFLKMSGNFDLSIEGMSISADLKLGSNPTSGKPTITCSSCSSHINSVHVHISKSKVGWLIQLFHKKIESALRNKMNSQVCEKVTNSVSSELQPYFQTLPVMTKIDSVAGINYGLVAPPATTAETLDVQMKGEFYSENHHNPPPFAPPVMEFPAAHDRMVYLGLSDYFFNTAGLVYQEAGVLKMTLRDDMIPKESKFRLTTKFFGTFLPEVAKKFPNMKIQIHVSASTPPHLSVQPTGLTFYPAVDVQAFAVLPNSSLASLFLIGMHTTGSMEVSAESNRLVGELKLDRLLLELKHSNIGPFPVELLQDIMNYIVPILVLPRVNEKLQKGFPLPTPARVQLYNVVLQPHQNFLLFGADVVYK

Legend:
[1] = system: Candida albicans designated CA-1, Strain SLU-1; assay type: cell-based; conditions: designated CA-1, Strain SLU-1, 24 h
Procedure: In each broth microdilution assay screening procedure, a colony of Candida albicans designated CA-1, Strain SLU-1 that was received from the laboratories of G. Matuschak and A. Lechner, St. Louis University Hospital, St. Louis, Mo., where the strain was maintained, was inoculated into a tube containing 5 mL Sabouraud Dextrose broth (2% dextrose, 1% neopeptone) and incubated at 37° C. with shaking. The overnight culture was diluted 1:50 into 5 ml of fresh broth and incubated for 3 hours at 37° C. to exponential phase growth. Organisms were pelleted by centrifugation in a Beckman J-6M centrifuge for 5 minutes at 3000 rpm (1500×g) and the pellets were resuspended in 5 mL phosphate buffered saline (PBS) and the optical density (OD) at 570 nm was determined. On the basis of the determination that one OD unit equals 3×10^7 colony forming units/mL (CFU/mL), yeast cells were diluted to 5×10^3 CFU/mL in Sabouraud Dextrose broth (SBD).
Derivatized peptide sequences based on Domain III of BPI to be screened which were originally constituted in Dulbecco's-PBS, were two-fold serially diluted in SDB starting from a concentration of 128 μg/mL. Equal volumes (100 μL) of yeast suspension as prepared above and derivatized peptide solution were added to wells of a 96-well sterile, flat bottom, non-pyrogenic tissue culture microtiter plate (Costar, Cambridge, Mass.) to reach a final volume of 200 μL/well. The plate was incubated on a shaker at 37° C. for 24 hours. All assays were performed in triplicate. Following the incubation period, plates were read in an ELISA plate reader at 595 nm wavelength to determine the minimum inhibitory concentration (MIC), i.e., the lowest concentration required to reduce the optical density at 595 nm to below 0.1 OD.

Candida albicans, SLU-1 = assay: 28-day comparative survival efficacy study in mice systemically infected with Candida albicans; assay type: in vivo, male DBA/2 mice; conditions: mice infected iv with C. albicans SLU-1; two doses less than 5 mg/kg; initial experiments (p>0.5)
Procedure: Derivatized peptide-based constructs are tested for activity upon oral administration (oral activity) in a 28-day comparative survival efficacy study in mice systemically infected with Candida albicans. Specifically, male DBA/2 mice (Charles River Laboratories) six weeks of age are dosed with 7.9×10^4 Candida albicans, SLU-1 in 100 μL intravenously via the tail vein in a single dosage on day zero (0). However, other routes of administration, including intraperitoneal (ip) and subcutaneous (sc) routes may be administered. Amphotericin B will provide complete protection at 0.5 mg/kg qod (100% survival). Mortality data will be subjected to Kaplan-Meier survival analysis. All treatment groups may be considered statistically significant vs. saline at p values <0.05.
Treatment begins immediately thereafter with 400 μL oral gavage of either 0.5% dextrose, or derivative compound in 0.5% dextrose at various dosage levels (e.g., 10 mg/kg or 20 mg/kg) according to a prescribed dosing regimen (e.g. every other day for a total of eight times). Amphotericin B (Fungizone®) is administered intravenously at 0.5 mg/kg as a positive control every other day for a total of eight times. Twice-day monitoring (once daily on weekends and holidays) for mortality is performed. The animals treated with antiflngal derivative compound show improvement in mortality compared with the dextrose-treated controls, preferably statistically significant improvement (p-value of […]).

Candida albicans SLU-1 = assay: Radial diffusion assay; assay type: cell-based; conditions: 30 mm^2 area of growth inhibition, calculated by PROBIT analysis
Procedure: In the radial diffusion assay procedures, the CA-1 cultures and derivatized peptide solutions were prepared as in the broth microdilution assay procedure described above, i.e., CA-1 was grown to exponential phase in SDB. Ten (10) mL of molten underlayer agarose comprising 3% Sabouraud Dextrose broth, 1% agarose (Pharmacia, Piscataway, N.J.), 0.02% Tween 20, and 10 mM sodium phosphate at pH 7.4, was added to polystyrene tubes and maintained in a 56° C. water bath until the addition of yeast. Tubes were cooled to approximately 45° C., yeast were added to give a final concentration of 1×10^6 CFU/mL, and the tubes were mixed again by inverting. The contents were poured into leveled, square petri dishes and distributed evenly. […] A series of wells were punched into the hardened agarose using a sterile 3 mm punch attached to a vacuum apparatus to achieve a uniform, 3 mm diameter well.
Derivatized peptide sequences to be assayed were 2-fold serially diluted in 10 mM Dulbecco's PBS (D-PBS) starting from a concentration of approximately […]. Five μL of each dilution were added to each well and the plates were incubated at 37° C. for 3 hours to allow for complete diffusion of the test compounds. An overlayer of 10 mL of molten agarose comprising 6% Sabouraud Dextrose broth, 1% agarose, and 10 mM sodium phosphate, pH 7.4, (at approximately 45° C.) was then added and plates were incubated overnight at 37° C. Following this overnight incubation, a dilute Coomassie solution was poured into the plates and allowed to stain for 24 hours to enhance visualization of the zones.
Clear zones of growth inhibition around each well were measured with calipers. The actual area of growth inhibition (mm^2) was calculated by subtracting the area of the well. Table II below sets out the results of the radial diffusion assays for a series of tested peptide-based constructs in terms of the number of picomoles (pmol) of compound required to establish a 30 mm^2 area of growth inhibition of Candida albicans SLU-1 calculated by PROBIT analysis (e.g., calculated from regression of the linear portion of log-concentration dose-response curve, log pmol/well vs. net area of inhibition).

[2] = system: Candida albicans and Candida parapsilosis; conditions: 10^−6 M; pH 7.0 or 5.5; cited from earlier work
[3] = system: Staphylococcus aureus (four strains), Staphylococcus epidermidis, Streptococcus faecalis, Bacillus subtilis, Micrococcus lysodeikticus, and Listeria …; conditions: 160 μg/ml; pH of either 7.0 or 5.5; cited from earlier work
gram-negative bacteria = conditions: broad range of gram-negative bacteria; concentrations as low as; cited from earlier work
[4] = system: human, rabbit and sheep red blood cells and several human tumor cell lines; conditions: cited from earlier work

Row | Molecule | Broth Microdilution (MIC values in μg/mL C. albicans SLU1) [1] [µg/mL] | improvement in mortality compared with dextrose-treated controls (Candida albicans, SLU-1) | Radial Diffusion (pmol to achieve 30 mm^2 zone C. albicans SLU1) (Candida albicans SLU-1) | toxic effect on fungi [2] | toxic effect on gram-positive organisms [3] | concentration exhibiting anti-bacterial activity (gram-negative bacteria) | toxicity to higher eukaryotic cells [4]
1 | CC[C@@H](C)[C@@H](NC(=O)[C@@H](CC(C)C)NC(=O)[C@@H](Cc1c[nH]c2ccccc12)NC(=O)[C@@H](CCCCN)NC(=O)CCCC[C@@H]1SC[C@@H]2NC(=O)N[C@@H]21)C(=O)N[C@H](CCC(N)=O)C(=O)N[C@H](CC(C)C)C(=O)N[C@H](Cc1ccccc1)C(=O)N[C@H](Cc1c[nH]cn1)C(=O)N[C@H](CCCCN)C(=O)N[C@H](CCCCN)C(N)=O [XMP.519] | 1 | did not exhibit statistically significant improvement | 170 pmol | – | – | – | –
2 | CC[C@@H](C)[C@@H](NC(=O)[C@@H](CC(C)C)NC(=O)[C@@H](Cc1c[nH]c2ccccc12)NC(=O)[C@@H](CCCCN)NC(=O)c1ccc2c(c1)-c1ccccc1-2)C(=O)N[C@H](CCC(N)=O)C(=O)N[C@H](CC(C)C)C(=O)N[C@H](Cc1ccccc1)C(=O)N[C@H](Cc1c[nH]cn1)C(=O)N[C@H](CCCCN)C(=O)N[C@H](CCCCN)C(N)=O [XMP.534] | 4 | did not exhibit statistically significant improvement | >3,371 pmol | – | – | – | –
3 | B1 | – | – | – | no toxic effect | no toxic effect | 10^−8 to 10^−9 M | non-toxic
